The source of these data is patent US20150275180A1, “Chemical preconditioning process for cell material to obtain chemical epigenetic reprogramming and pluripotency expression” (priority 2012, published 2015).

Like-named read-outs stand apart in the source and are kept apart here.

The test system of assay [1] is human dermal skin fibroblasts. The assay is described as follows: Comparative analysis of HBR, its grafting moieties alone or as a mixture, on stemness gene expression. Format: cell-based. Particulars: 12 hours, 2.0 mg/ml HBR, 1.5 mg/ml HA, 2.5 mM BU, 10^-8M RA, hydrolyzed HBR 2 mg/ml. Here is the method:
FIG. 6 is the comparative analysis of the effect of HBR, or its grafting moieties alone or as a mixture, on the expression of sternness-related genes in human dermal skin fibroblasts: cells were incubated for 12 hours in the absence or presence of 2.0 mg/ml HBR, 1.5 mg/ml HA, 2.5 mM BU, or 10^-8M RA, or exposed to a hydrolyzed (HY) HBR solution (2 mg/ml), obtained from a 2-h basic HBR hydrolysis followed by pH neutralization. This procedure affords a complete release of each single HBR grafted moiety, leading to the formation of a mixture of HA, BU, and RA, with each molecule in the concentration range reported above for the experiments based on cell incubation in the presence of each molecule alone. The amount of each transcript from exposed or unexposed cells was normalized to HPRT1, and the mRNA expression of exposed cells was plotted at each time point as fold change relative to the expression in control unexposed cells, defined as 1 (mean±S.E.; n=6).
This procedure affords a complete release of each single HBR grafted moiety, leading to the formation of a mixture of HA, BU, and RA, with each molecule in the concentration range reported above for the experiments based on (stem) cell incubation in the presence of each molecule alone.

In assay [2] the test system is human dermal skin fibroblasts. Particulars: 2 mg/ml HBR, 7-day treatment. From the text:
(§1) A, GATA4; B, Nkx2.5; C, neurogenin1; D, VEGF; E, MyoD. The amount of each transcript from exposed or unexposed cells was normalized to HPRT1, and the mRNA expression of exposed cells was plotted at each time point as fold change relative to the expression in control unexposed cells, defined as 1 (mean±S.E.; n=6);

Assay [3] has as its system Lipogems-derived hASCs. As to conditions: 2 mg/ml HBR, 7-day treatment.
Excerpt: as §1

For assay [4], the system named is human dermal skin fibroblasts. As to conditions: 2 mg/ml HBR. From the text: (§2) A, Sox2; B, Oct4; C, Nanog. The amount of each transcript from exposed or unexposed cells was normalized to HPRT1, and the mRNA expression of exposed cells was plotted at each time point as fold change relative to the expression in control unexposed cells, defined as 1 (mean±S.E.; n=6);

The test system of assay [5] is Lipogems-derived hASCs. Particulars: 2 mg/ml HBR.
Excerpt: as §2

Assay [6] concerns Lipogems-derived hASCs. Particulars: HBR for 14 days, confocal microscopy.
For a further assay, the system named is human skin fibroblasts. As to conditions: 14 days, 2 mg/ml HBR, mean±S.E., n=6.
In assay [7] the test system is human dermal skin fibroblasts. Particulars: HBR 2 mg/ml for 14 days, confocal microscopy. From the text: Scale bars are 40 μm. Representative of six separate experiments;
Assay [8] concerns adult rat cardiac ventricular cardiomyocytes. Particulars: in vitro HBR treatment; cited from earlier work.
Assay [9] deals with Lipogems-derived hASCs. As to conditions: 14 days, 2 mg/ml HBR, mean±S.E., n=6.
Assay [10] relates to Stro-1 positive rat mesenchymal stem cells. As to conditions: in vitro HBR treatment; cited from earlier work.
Where [11] appears, read: later times of exposure (7-day treatment).
The mark [12] stands for this setting: within the first 12-24 hours of a 7-day treatment.

Regarding `CCCC(=O)O` [BU, butyric acid], the “transcription of the stemness/pluripotency genes Sox2, Nanog and Oct4 versus unexposed control” value in [1] was “significantly increased”.
Take “hyaluronic acid esterified with butyric and retinoic acids [HBR]”: the “gene expression of GATA4, Nkx2.5, VEGF, neurogenin-1 and myoD” value (in assay [2]; in the assay with Lipogems-derived hASCs [3]) was “significantly enhanced” throughout. Moreover, the “transcription of stemness-related genes Nanog, Sox2, Oct4” value in [4] (setting [11]) is on record as “down-regulation”; in assay [4] (setting [12]), “significantly enhanced”; with Lipogems-derived hASCs [5] (setting [11]), “down-regulation”; in the assay on Lipogems-derived hASCs [5] (setting [12]) it was “significantly enhanced”. The “expression of tissue restricted marker proteins (α-myosin heavy chain, α-sarcomeric actinin, β-3 tubulin, vWF, myoD)” value (in the assay on Lipogems-derived hASCs [6]; in [7]) was “appearance of cells expressing” throughout. Further, the “cells expressing vWF (endothelial marker)” value in the assay with human skin fibroblasts is 18.0±2.6. For the same compound, the “cells expressing β-3-tubulin (neuronal determination marker)” value in the assay with human skin fibroblasts is 12.30±2.7%. Moreover, the “percentage of myoD (skeletal muscle)-positive elements” value in the assay on human skin fibroblasts was found to be 14.00±3.00%. Besides, in the assay with human skin fibroblasts, the “percentage of α-sarcomeric actinin (myocardial)-positive elements” value is on record as 28.00±3.40%. Also, the “histone H4 acetylation compared with untreated cells” value in [8] and in assay [10] was “significant increase” throughout. The “cells expressing α-sarcomeric actinin” value in the assay with Lipogems-derived hASCs [9] came out at 31.0±2.8%. Besides, in the assay with Lipogems-derived hASCs [9], the myoD positive cells worked out at 12.4±2.0%. The vWF positive cells in the assay with Lipogems-derived hASCs [9] is given as 22.2±3.0%. For the same compound, the β-3-tubulin expressing cells in the assay with Lipogems-derived hASCs [9] is 14.0±2.1%. For the same compound, the “transcription of the stemness/pluripotency genes Sox2, Nanog and Oct4 versus unexposed control” value in [1] is “significantly higher levels”.
Turning to hyaluronic acid [HA], the “transcription of the stemness/pluripotency genes Sox2, Nanog and Oct4 versus unexposed control” value in assay [1] was “significantly increased”.
